Measured values reported in publication PMC4096046 (Bioorganic & medicinal chemistry letters, 2014).
In brackets after ≈: the same amount, converted by molar mass.

Experiments:
H37Rv Mtb = assay: MIC against replicating H37Rv Mtb in GAS and 7H12 media; assay type: cell-based, Mycobacterium tuberculosis; conditions: for MIC: Mycobacterium tuberculosis, H37RV, read-out: MIC mean +/- against replicating Mtb in medium: GAS (μg/mL), GAS medium, H37Rv, recalculated from μM
Mycobacterium avium = assay: MIC against non-tubercular mycobacteria: M. avium; assay type: cell-based
Mycobacterium bovis BCG = assay: MIC against non-tubercular mycobacteria: M. bovis BCG; assay type: cell-based; conditions: Mycobacterium tuberculosis variant bovis BCG
Mycobacterium kansasii = assay: MIC against non-tubercular mycobacteria: M. kansasii; assay type: cell-based

Row | Compound | MIC (H37Rv Mtb) | also measured
1 | Cc1ccn2c(C(=O)NCc3ccccc3)c(C)nc2c1 [Compound 1, N-benzyl-2,7-dimethyl-imidazo[1,2-a]pyridine-3-carboxamide] |  | times more potent than 12 (H37Rv Mtb; MIC's of 0.2 and 70 μM): 350 times
2 | Cc1ccc2c(C(=O)NCc3ccccc3)n[nH]c2c1 [Compound 9, N-benzyl-6-methyl-1H-indazole-3-carboxamide] | 10.8 ± 0.9 µg/mL (≈ 40.7 µM) | 
3 | Cc1ccc2nc(C)c(C(=O)NCc3ccccc3)n2c1 [Compound 2] | 0.031 ± 0.002 µg/mL (≈ 0.111 µM) | MIC (Mycobacterium avium): 16 µM (≈ 4.47 µg/mL); MIC (Mycobacterium bovis BCG): 1 µM (≈ 0.279 µg/mL)
4 | Cc1ccn2c(C)c(C(=O)NCc3ccccc3)nc2c1 [Compound 12, N-benzyl-3,7-dimethylimidazo[1,2-a]pyridine-2-carboxamide] | 19.6 ± 2.5 µg/mL (≈ 70.2 µM) | 
5 | Cc1ccn2c(C(=O)NCc3ccccc3)nnc2c1 [Compound 10, N-benzyl-7-methyl-[1,2,4]triazolo[4,3-a]pyridine-3-carboxamide] | 27 ± 1.6 µg/mL (≈ 101 µM) | negative effect on potency relative to compound 2 (H37Rv Mtb; GAS medium, MIC of 0.1 and 101 μM): 1000 x
6 | Cc1cnc2nc(C)c(C(=O)NCc3ccccc3)n2c1 [Compound 6, N-benzyl-2,6-dimethylimidazo[1,2-a]pyrimidine-3-carboxamide] | 0.36 ± 0.06 µg/mL (≈ 1.28 µM) | MIC (Mycobacterium kansasii): 19 µM (≈ 5.33 µg/mL); MIC (Mycobacterium bovis BCG): 8 µM (≈ 2.24 µg/mL)
7 | Cc1cc(C)n2nc(C(=O)NCc3ccccc3)nc2n1 [Compound 11, N-benzyl-5,7-dimethyl-[1,2,4]triazolo[1,5-a]pyrimidine-2-carboxamide] | 35.4 ± 0.8 µg/mL (≈ 126 µM) | 
8 | Cc1ccc2nc(C)c(C(=O)NCc3ccccc3)n2n1 [Compound 7, N-benzyl-2,6-dimethylimidazo[1,2-b]pyridazine-3-carboxamide] | 17.9 ± 0.5 µg/mL (≈ 63.9 µM) | 
9 | Cc1ccc2c(C(=O)NCc3ccccc3)c(C)[nH]c2c1 [Compound 8, N-Benzyl-2,6-dimethyl-1H-indole-3-carboxamide] | 12.2 ± 0.3 µg/mL (≈ 43.8 µM) | 
